Reference: patent US20240116845A1, “INDENE COMPOUNDS, PHARMACEUTICAL COMPOSITIONS THEREOF, AND THEIR THERAPEUTIC APPLICATIONS” (NucMito Pharmaceuticals Co., Ltd., priority 2021, published 2024)

Columns and labels:
Format in all cases: cell-based
[1] = tested on: alpha-smooth muscle actin (α-SMA); assay: Inhibition of TGF-β induced expression of alpha-smooth muscle actin in CFSC cells (western blot); conditions: compound at 10 μM, TGF-β (10 ng/mL), 24 hours
Protocol: The ability of a compound to inhibit the TGF-β induced expression of alpha-smooth muscle actin (α-SMA) was evaluated in CCl4-treated fat storing (CFSC) cells. α-SMA is considered as a reliable marker of hepatic stellate cell activation and a key biomarker for liver fibrosis.
CFSC cells maintained in a DMEM medium supplemented with 10% fetal bovine serum were seeded to 12-well culture dishes and grown to a confluence of 60-70% the next day. Culture was changed to a serum-free DMEM medium and the cells were treated with the compound at 10 μM in the presence of TGF-β (10 ng/mL). The cells were incubated for another 24 hours. All culture was maintained at 37° C. in 5% carbon dioxide.
An NP-40 lysate solution (50 mM Tris, pH 7.4, 150 mM NaCl, 1% NP-40) with EDTA free cocktail added was used to lyse the cells on ice for 30 min. The lysate was collected and centrifuged at 4° C. for 10 min at 12,000 rpm. The pellet was discarded and the supernatant was transferred to a new tube. The cell lysate was loaded with 5× loading buffer and boiled for 10 min, resolved by 10% SDS-polyacrylamide gel electrophoresis (SDS-PAGE), and transferred to a PVDF membrane. The membrane was blocked with 5% skim milk in Tris-buffered saline and TWEEN® 20 (TBST; 10 mM Tris-HCl, pH 8.0, 150 mM NaCl, 0.1% TWEEN® 20) for 1 h at room temperature and then incubated with α-SMA and β-actin antibodies overnight at 4° C. After washing twice with TBST, the membrane was probed with a […] anti-immunoglobulin (1:5000 dilution) for 1 h at room temperature. After two subsequent rinses in TBST, immunoreactive products were reacted with ECL and visualized by a UVP CHEMSTUDIO™ imaging system. The western blotting bands are quantitated using an ImageJ software. The percentage of inhibition was obtained by calculating the percentage decrease in the band intensity compared to the one treated with TGF-β only.
The results are summarized in Table 1, where A represents a value no less than 80/% inhibition, B represents a value less than 80% but no less than 50% inhibition, C represents a value less than 50% but no less than 30% inhibition, and D represents a value less than 30% inhibition with a compound at 10 μM.

SW480 (colon cancer) = assay: Antiproliferative activity, CCK-8 cell viability; conditions: Homo sapiens, 72 h, read-out: Inhibition of Cancerous Cells, SW480
Protocol: (§1) The antiproliferative activity of a compound was determined in the following cell lines: MDA-MB-231 (breast cancer), HepG2 (liver cancer), SW480 (colon cancer), B16F10 (malignant melanoma), A431 (epidermoid carcinoma), A549 (lung adenocarcinoma), and HeLa (cervical cancer). MDA-MB-231, HepG2, SW480, B16F10, and A431 cells were cultured in Dulbecco's modified Eagle's medium (DMEM) containing 10% fetal bovine serum (FBS). HeLa cells were cultured in MEM/EBSS (MEM) containing 10% FBS. A549 cells were maintained in Kaighn's modification of Ham's F-12 medium containing 10% FBS. The Cell Counting Kit-8 (CCK-8) assay was used to determine the cell viability of cells following treatment with the compound.
(§2) Briefly, cells were seeded in a 96-well plate at a density of 2,000-5,000 cells/well. Following attachment, the cells were treated with the compound in media at a compound concentration of 3.3 μM, 10 μM, or 30 μM, or DMSO as a control. After the cells were incubated at 37° C. for 72 h, the CCK-8 solution (10 μL) was added to each well. After incubation at 37° C. for 4 h, the absorbance value of each well was determined using a multi-well plate reader at 450 nm. The percentage of cell viability was determined with respect to the DMSO-treated cells. The results were summarized in Table 2-4 below, wherein A represents no less than 50% inhibition of cell growth; B represents less than 50% but no less than 30% inhibition of cell growth; C represents less than 30% inhibition of cell growth.

[2] = tested on: A549 (lung adenocarcinoma); assay: Antiproliferative activity, CCK-8 cell viability; conditions: Homo sapiens, 72 h, read-out: Inhibition of Cancerous Cells, A549
Protocol: as §1, §2

[3] = tested on: B16F10 (malignant melanoma); assay: Antiproliferative activity, CCK-8 cell viability; conditions: Mus musculus, B16-F10, 72 h, read-out: Inhibition of Cancerous Cells, B16F10
Protocol: as §1, §2

HeLa (cervical cancer) = assay: Antiproliferative activity, CCK-8 cell viability; conditions: Homo sapiens, 72 h, read-out: Inhibition of Cancerous Cells, HELA
Protocol: as §1, §2

[4] = tested on: MDA-MB-231 (breast cancer); assay: Antiproliferative activity, CCK-8 cell viability; conditions: Homo sapiens, 72 h, read-out: Inhibition of Cancerous Cells, MDA-MB-231
Protocol: as §1, §2

HepG2 (liver cancer) = assay: Antiproliferative activity, CCK-8 cell viability; conditions: Homo sapiens, 72 h, read-out: Inhibition of Cancerous Cells, HepG2
Protocol: as §1, §2

[5] = compound concentration of 3.3 μM
[6] = compound concentration of 10 μM
[7] = compound concentration of 30 μM

CC1=C(CC(=O)O)c2cc(F)ccc2/C1=C\c1cccc(Oc2ccc(C(F)(F)F)cc2)c1 [Compound D26, 2-[(1Z)-5-Fluoro-2-methyl-1-({3-[4-trifluoromethylphenoxy]phenyl}-methylidene)-1H-inden-3-yl]acetic acid]
inhibition at 10 µM [1]: ≥ 80% | inhibition at 3.3 µM (SW480 (colon cancer); [5]): < 30% | inhibition at 10 µM (SW480 (colon cancer); [6]): < 30% | inhibition at 30 µM (SW480 (colon cancer); [7]): ≥ 50% | inhibition at 3.3 µM [2, 5]: 30 to 50% | inhibition at 10 µM [2, 6]: 30 to 50% | inhibition at 30 µM [2, 7]: ≥ 50% | inhibition at 3.3 µM [3, 5]: 30 to 50% | inhibition at 10 µM [3, 6]: ≥ 50% | inhibition at 30 µM [3, 7]: ≥ 50% | inhibition at 3.3 µM (HeLa (cervical cancer); [5]): 30 to 50% | inhibition at 10 µM (HeLa (cervical cancer); [6]): ≥ 50% | inhibition at 30 µM (HeLa (cervical cancer); [7]): ≥ 50% | inhibition at 3.3 µM [4, 5]: ≥ 50% | inhibition at 10 µM [4, 6]: ≥ 50% | inhibition at 30 µM [4, 7]: ≥ 50% | inhibition at 3.3 µM (HepG2 (liver cancer); [5]): 30 to 50% | inhibition at 10 µM (HepG2 (liver cancer); [6]): ≥ 50% | inhibition at 30 µM (HepG2 (liver cancer); [7]): ≥ 50%

CC1=C(CC(=O)NO)c2cc(F)ccc2/C1=C\c1ccc(C2=CCCC2)cc1 [Compound D40, (Z)-2-(1-(4-(Cyclopent-1-en-1-yl)benzylidene)-5-fluoro-2-methyl-1H-inden-3-yl)-N-hydroxyacetamide]
inhibition at 10 µM [1]: 50 to 80%

CON(C)C(=O)CC1=C(C)/C(=C/c2ccc(C(C)(C)C)cc2)c2ccc(F)cc21 [Compound B4, (Z)-2-(1-(4-(Tert-butyl)benzylidene)-5-fluoro-2-methyl-1H-inden-3-yl)-N-methoxy-N-methylacetamide]
inhibition at 10 µM [1]: ≥ 80%

CC1=C(CC(=O)NO)c2cc(F)ccc2/C1=C\c1ccc(Br)c2ccccc12 [Compound C4, (Z)-2-(1-((4-Bromonaphthalen-1-yl)methylene)-5-fluoro-2-methyl-1H-inden-3-yl)-N-hydroxyacetamide]
inhibition at 10 µM [1]: ≥ 80%

CC1=C(CC(=O)NO)c2cc(F)ccc2/C1=C\c1ccc(Oc2ccc(C(C)C)cc2)cc1 [Compound D1, 2-[(1Z)-5-Fluoro-2-methyl-1-({4-[4-(propan-2-yl)phenoxy]phenyl}methylidene)-1H-inden-3-yl]-N-hydroxyacetamide]
inhibition at 10 µM [1]: ≥ 80%

CC1=C(CC(=O)O)c2cc(F)ccc2/C1=C\c1ccc(C2=CCCC2)cc1 [Compound D39, (Z)-2-(1-(4-(Cyclopent-1-en-1-yl)benzylidene)-5-fluoro-2-methyl-1H-inden-3-yl)acetic acid]
inhibition at 10 µM [1]: 50 to 80%

CC1=C(CC(=O)O)c2cc(F)ccc2/C1=C\c1ccc(Oc2cccc([N+](=O)[O-])c2)cc1 [Compound D6, 2-[(1Z)-5-Fluoro-2-methyl-1-({4-[3-nitrophenoxy]phenyl}methylidene)-1H-inden-3-yl]acetic acid]
inhibition at 10 µM [1]: < 30%

CC1=C(CC(=O)O)c2cc(F)ccc2/C1=C\c1ccc(OCc2ccccc2)cc1 [Compound A2, 2-[(1Z)-5-Fluoro-1-(4-(benzyloxy)benzylidene)-2-methyl-1H-inden-3-yl]-acetic acid]
inhibition at 10 µM [1]: ≥ 80%

CC1=C(CC(=O)O)c2cc(F)ccc2/C1=C\c1cccc(N(C)c2ccccc2)c1 [Compound D37, 2-[(1Z)-5-Fluoro-2-methyl-1-({3-[methyl(phenyl)amino]phenyl}methylidene)-1H-inden-3-yl]acetic acid]
inhibition at 10 µM [1]: ≥ 80%

CC1=C(CC(=O)O)c2cc(F)ccc2/C1=C/c1ccc(Oc2ccc(F)cc2)cc1 [Compound E2, 2-[(1E)-5-Fluoro-2-methyl-1-({4-[4-fluorophenoxy]phenyl}methylidene)-1H-inden-3-yl]acetic acid]
inhibition at 10 µM [1]: ≥ 80%

CC1=C(CC(=O)NO)c2cc(F)ccc2/C1=C\c1ccc(C)c2ccccc12 [Compound C2, (Z)-2-(5-Fluoro-2-methyl-1-((4-methylnaphthalen-1-yl)methylene)-1H-inden-3-yl)-N-hydroxyacetamide]
inhibition at 10 µM [1]: ≥ 80%

CC1=C(CC(=O)O)c2cc(F)ccc2/C1=C\c1ccc(Oc2ccc(C(F)(F)F)cc2)cc1 [Compound D7, 2-[(1Z)-5-Fluoro-2-methyl-1-({4-[4-(trifluoromethyl)phenoxy]phenyl}-methylidene)-1H-inden-3-yl]acetic acid]
inhibition at 10 µM [1]: ≥ 80%

CC1=C(CC(=O)O)c2cc(C(C)(C)C)ccc2/C1=C\c1ccc(Oc2ccc(F)cc2)cc1 [Compound D17, 2-[(1Z)-5-Tert-butyl-2-methyl-1-({4-[4-fluorophenoxy]phenyl}methylidene)-1H-inden-3-yl]acetic acid]
inhibition at 10 µM [1]: ≥ 80%

CC1=C(CC(=O)O)c2cc(F)ccc2/C1=C\c1ccc(COc2ccc(F)cc2)cc1C(F)(F)F [Compound A14, 2-[(1Z)-5-Fluoro-1-({4-[(4-fluorophenoxy)methyl]-2-(trifluoromethyl)phenyl}-methylidene)-2-methyl-1H-inden-3-yl]acetic acid]
inhibition at 10 µM [1]: ≥ 80%

CC1=C(CC(=O)O)c2cc(F)ccc2/C1=C\c1cccc(Oc2ccccc2)c1 [Compound D18, (Z)-2-(5-Fluoro-2-methyl-1-(3-phenoxybenzylidene)-1H-inden-3-yl)acetic acid]
inhibition at 10 µM [1]: ≥ 80%
